We go through seven compounds from the supplement of paper PMC11061612.

Common to all, as to assay: Bliss excess, mean over the matrix (fraction); higher = more synergy
The test system of assay [1] is MRK-nu-1 (Breast Carcinoma). The essentials:
(§1)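 Cell lines in DMEM/F12 or RPMI with 10% FBS were plated in 1536-well plates, held 24 hours at 37°C, 5% CO2, then given two-drug dose matrices for 72 hours (DMSO typically 0.2%). Viability was read by CellTiter-Glo 2.0 luminescence and scaled as inhibition from 0 (vehicle wells) to 1 (blank wells). Combination Emax is the second-highest inhibition in the matrix; Bliss excess is observed combination effect minus expected EA + EB − EA·EB, EA and EB being single-agent effects.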

Assay [2] concerns NCI-H1944 (Lung Adenocarcinoma). In a few lines: as §1
In assay [3] the test system is L-363 (Plasma Cell Myeloma). In a few lines:
as §1

Assay [4] has as its system BC-1 (B-Cell Non-Hodgkin's Lymphoma). The essentials: as §1
For assay [5], the system named is NCI-H1648 (Lung Adenocarcinoma). In a few lines: as §1
Assay [6] relates to Daudi (Burkitt's Lymphoma). In a few lines:
as §1

Assay [7] has as its system GRANTA-519 (B-Cell Non-Hodgkin's Lymphoma). The essentials: as §1
Assay [8] relates to JJN-3 (Plasma Cell Myeloma). In a few lines: as §1
In assay [9] the test system is SBC-5 (Small Cell Lung Carcinoma). The essentials: as §1
For assay [10], the system named is NCI-H2009 (Lung Adenocarcinoma). The essentials: as §1
The subject of a further assay is NCI-H2452 (Mesothelioma). In a few lines:
as §1

Assay [11] concerns COR-L105 (Lung Adenocarcinoma). In a few lines:
as §1

Assay [12] relates to RPMI-8402 (T-Lymphoblastic Leukemia). The essentials:
as §1

Assay [13] relates to HT-3 (Cervical Carcinoma). In a few lines: as §1
In assay [14] the test system is SBC-3 (Small Cell Lung Carcinoma). In a few lines: as §1
In the next assay the test system is SK-N-DZ (Neuroblastoma). In a few lines: as §1
For assay [15], the system named is ATN-1 (T-Lymphoblastic Leukemia). The essentials:
as §1

Assay [16] has as its system NCI-H1975 (Lung Adenocarcinoma). The essentials:
as §1

The subject of assay [17] is C2BBe1 (Colorectal Carcinoma). The essentials: as §1
Assay [18] concerns SUP-HD1 (Hodgkin's Lymphoma). The essentials: as §1

As for `COc1nnc2ccc(N3CCC(c4ccc(OCCN5CCN(C)C(=O)[C@H]5C)cc4)CC3)nn12` [AZD5153] + CC1(C)CCC(CN2CCN(c3ccc(C(=O)NS(=O)(=O)c4ccc(NCC5CCOCC5)c([N+](=O)[O-])c4)c(Oc4cnc5[nH]ccc5c4)c3)CC2)=C(c2ccc(Cl)cc2)C1 [Venetoclax] (first compound max 1 µM, 7x7, partner max 1 µM), the Bliss excess is -0.0537 in assay [1]; -0.0824 in assay [2]; -0.101 in assay [3]; -0.0604 in [4]; -0.062 in assay [5]; -0.0458 in [6]. Moreover, the Bliss excess in assay [7] is 0.0237; in assay [8], 0.0278; in assay [9] it was -0.0579; in [10], -0.0432; in the assay on NCI-H2452 (Mesothelioma) it was 0.0059; in assay [11], -0.0006. Moreover, the Bliss excess in [12] was 0.0135; in [13], -0.0644; in [14], -0.0545; in the assay with SK-N-DZ (Neuroblastoma) it was 0.0059; in [15] it was -0.0279; in assay [16], -0.0579. The Bliss excess is -0.0234 in [17] and -0.0316 in [18].
`C=CCn1c(=O)c2cnc(Nc3ccc(N4CCN(C)CC4)cc3)nc2n1-c1cccc(C(C)(C)O)n1` [AZD1775] + C[C@@H]1COCCN1C2=NC(=NC(=C2)C3(CC3)[S@](=N)(=O)C)C4=C5C=CNC5=NC=C4 [AZD6738] (first compound max 1 µM, partner max 10 µM): the Bliss excess in assay [1] was found to be 0.0633; in assay [2], 0.0456; in assay [3], 0.0474; in assay [4], 0.0338; in assay [5], 0.0111; in [6], 0.0329. In addition, the Bliss excess in [7] is 0.0068; in assay [8] it was 0.0559; in assay [9], 0.0037; in [10], 0.0987; with NCI-H2452 (Mesothelioma) it was -0.0518; in [11], -0.0411. The Bliss excess in [12] was 0.0379; in [13], 0.0386; in assay [14] it was 0.0197; in the assay with SK-N-DZ (Neuroblastoma), 0.0094; in assay [15], -0.0076; in assay [16], 0.0451. The Bliss excess is 0.0278 in [17] and -0.0282 in assay [18].
Regarding `CC1(C)CCC(CN2CCN(c3ccc(C(=O)NS(=O)(=O)c4ccc(NCC5CCOCC5)c([N+](=O)[O-])c4)c(Oc4cnc5[nH]ccc5c4)c3)CC2)=C(c2ccc(Cl)cc2)C1` [Venetoclax] + C=CCn1c(=O)c2cnc(Nc3ccc(N4CCN(C)CC4)cc3)nc2n1-c1cccc(C(C)(C)O)n1 [AZD1775] (first compound max 1 µM, partner max 1 µM), the Bliss excess in assay [1] was -0.0341; in assay [2], -0.0808; in assay [3], 0.0933; in assay [4], 0.0683; in assay [5], -0.0451; in assay [6] it was -0.0267. Also, the Bliss excess in assay [7] was 0.0734; in assay [8], -0.0187; in assay [9] it was -0.0709; in assay [10], -0.0212; in the assay with NCI-H2452 (Mesothelioma), 0.0036; in assay [11], -0.0095. Moreover, the Bliss excess in assay [12] was -0.0203; in [13], -0.0049; in assay [14], 0.043; in the assay on SK-N-DZ (Neuroblastoma), 0.0353; in assay [15], 0.0707; in assay [16] it was -0.0143. Further, the results for the Bliss excess in assay [17] and in [18] were 0.0124 and -0.0256, respectively.
With `COc1cccc(OCCCN)c1-c1cc(Nc2cnc(C#N)cn2)n[nH]1` [Prexasertib] + O=C(c1cc(Cc2n[nH]c(=O)c3ccccc23)ccc1F)N1CCN(C(=O)C2CC2)CC1 [Olaparib] (first compound max 1 µM, 7x7, partner max 10 µM), the Bliss excess in [1] was -0.0392; in [2], -0.0498; in assay [3], -0.0157; in [4] it was -0.0108; in [5], 0.0051; in assay [6], -0.058. The Bliss excess was -0.105 in assay [7]; 0.0165 in assay [8]; -0.0376 in assay [9]; -0.0185 in [10]; -0.0874 in the assay on NCI-H2452 (Mesothelioma); -0.0135 in assay [11]. In addition, the Bliss excess in assay [12] is -0.0292; in assay [13], 0.0276; in assay [14] it was -0.0544; in the assay with SK-N-DZ (Neuroblastoma), -0.0511; in assay [15], -0.0078; in assay [16], 0.0284. Further, the Bliss excess in [17] was -0.0704; in assay [18], -0.091.
Turning to `CC(=O)c1c(C)c2cnc(Nc3ccc(N4CCNCC4)cn3)nc2n(C2CCCC2)c1=O` [Palbociclib] + Cn1cnc2c(F)c(Nc3ccc(Br)cc3Cl)c(C(=O)NOCCO)cc21 [Selumetinib] (first compound max 10 µM, 7x7, partner max 10 µM), the Bliss excess was 0.0259 in assay [1]; -0.0022 in [2]; 0.0127 in [3]; 0.0124 in assay [4]; 0.0823 in assay [5]; -0.0641 in assay [6]. Also, the Bliss excess in [7] is -0.0386; in assay [8] it was -0.0244; in assay [9] it was 0.0396; in assay [10], -0.0264; in the assay with NCI-H2452 (Mesothelioma), -0.0682; in [11], -0.0355. Besides, the Bliss excess in assay [12] was -0.0374; in assay [13], -0.0279; in assay [14], -0.0396; in the assay on SK-N-DZ (Neuroblastoma), -0.0848; in [15], 0.0209; in [16] it was -0.0041. Besides, the results for the Bliss excess in [17] and in [18] were -0.0273 and -0.0414, respectively.
As to `C=CCn1c(=O)c2cnc(Nc3ccc(N4CCN(C)CC4)cc3)nc2n1-c1cccc(C(C)(C)O)n1` [AZD1775] + O=C(c1cc(Cc2n[nH]c(=O)c3ccccc23)ccc1F)N1CCN(C(=O)C2CC2)CC1 [Olaparib] (first compound max 1 µM, partner max 10 µM), the Bliss excess was -0.0311 in assay [1]; -0.043 in assay [2]; -0.0153 in assay [3]; -0.0326 in assay [4]; -0.0216 in assay [5]; 0.0043 in assay [6]. Also, the Bliss excess in assay [7] was -0.0679; in assay [8], -0.0591; in [9] it was -0.0435; in assay [10], 0.0075; in the assay with NCI-H2452 (Mesothelioma), -0.0608; in [11], -0.0881. Moreover, the Bliss excess in assay [12] was 0.0113; in [13] it was -0.0055; in assay [14] it was 0.0028; in the assay with SK-N-DZ (Neuroblastoma) it was -0.0122; in [15], -0.0189; in [16], -0.0248. The Bliss excess is -0.0322 in assay [17] and -0.0346 in assay [18].
As for `CC1(C)CCC(CN2CCN(c3ccc(C(=O)NS(=O)(=O)c4ccc(NCC5CCOCC5)c([N+](=O)[O-])c4)c(Oc4cnc5[nH]ccc5c4)c3)CC2)=C(c2ccc(Cl)cc2)C1` [Venetoclax] + C[C@@H](Nc1cc(F)cc(F)c1)c1cc(C(=O)N(C)C)cc2c(=O)cc(N3CCOCC3)oc12 [AZD8186] (first compound max 1 µM, 7x7, partner max 3 µM), the Bliss excess in assay [1] is -0.0165; in assay [2], -0.034; in assay [3], -0.001; in assay [4], -0.0157; in [5], -0.0603; in assay [6], -0.0238. The Bliss excess in assay [7] was 0.0281; in [8], -0.0092; in assay [9], -0.022; in [10] it was -0.0281; with NCI-H2452 (Mesothelioma) it was 0.0255; in assay [11], -0.0359. In addition, the Bliss excess is 0.0028 in assay [12]; -0.0359 in [13]; -0.034 in assay [14]; 0.0144 in the assay on SK-N-DZ (Neuroblastoma); 0.0347 in assay [15]; -0.0203 in assay [16]. Further, the Bliss excess in assay [17] is -0.135; in assay [18], -0.025.
